From article PMC6325200, “Effects of Microplate Type and Broth Additives on Microdilution MIC Susceptibility Assays” (Antimicrobial Agents and Chemotherapy, 2018)
In brackets after ≈: the same amount, converted by molar mass. Read-outs that look alike come from different tables or passages of the source. Where a SMILES comes first, the peptide text is derived from it. Bridges are numbered along the chain shown (N, C = ends). [ ]: non-standard residue; d: D form. The star is where a group is joined. X1 = CC[C@H](C)CCCCC(=O)*; Dab = NCC[C@H](N)C(=O)O

Assays:
[1] = system: S. pyogenes ATCC 12344; conditions: ATCC 12344
Procedure: (§1) A positive control of a row of just the bacteria and a negative control of only the medium were included for every plate tested.
(§2) The compounds along with standard antibiotics were serially diluted 2-fold across the 96-well plates. […] A sample of each culture was then diluted 40-fold in fresh MH broth (in presence and absence of Tween) and incubated at 37°C for 2 to 3 h.

[2] = system: MRSA; conditions: literature value; cited from earlier work
Description: TABLE 1 Literature MIC values for tested antibiotics | column: MIC (µg/ml) (reference[s]) / MRSA

[3] = system: MRSA ATCC 43300; conditions: n = 2
Procedure: as §1, §2
(§3) For experiments in the presence of surfactant, 2% beractant (25 mg/ml) was added to the mid-log-phase cultures and mixed gently and added to all the 96-well plates. For experiments in the presence of serum, a mixture of 50% of human serum along with 50% MHB was prepared and used throughout the experiment.

[4] = cited from earlier work
Description: Other assay additives can affect MIC values. […] This in turn translates into reduced ...

[5] = system: S. aureus ATCC 29123; conditions: cited from earlier work
Procedure: (§4) The majority of antibiotic stock solutions for testing are prepared in water, phosphate buffer, or pH-adjusted aqueous solution (106 out of 139 reported in CLSI M100 [see Table 6A, “Solvents and diluents for preparation of stock solutions of antimicrobial agents”]) ([3]). […] Furthermore, the CLSI reference MIC quality control range tabulated for dalbavancin an ...

[6] = system: S. aureus GISA NRS 2; ATCC 700698; experiment: microbe, parasite or virus in culture; conditions: Corning NBS; MHB -T80; n = 2
Procedure: as §1, §2

[7] = system: E. faecalis ATCC 29212; experiment: microbe, parasite or virus in culture; conditions: Corning NBS; MHB +T80; n = 2
Procedure: as §1, §2

[8] = system: over 200 strains; conditions: 0.002% polysorbate added; cited from earlier work
Description: Members of the lipopeptide polymyxin class of antibiotics (polymyxin B [compound 7a] and polymyxin E [or colistin, compound 7b]) are important last-line therapeutic agents against many multidrug-resistant Gram-negative bacteria ([27][–][31]). They consist of an N-terminal fatty acid side chain that is attached to a polycationic deca-peptide backbone (Fig. 1) with physicochemical properties similar to those of the lipoglycopeptides. These structural features confer amphipathicity, which is a key feature of many other cationic antimicrobial peptides (CAMPs) ([32][–][34]). As mentioned earlier, p ...

[9] = system: E. coli; conditions: literature value; cited from earlier work
[10] = system: E. coli ATCC 25922; experiment: microbe, parasite or virus in culture
Procedure: as §1, §2, §3

[11] = cited from earlier work; remark: listed apart in the source
Description: Other assay additives can affect MIC values. […] Plasma protein binding has been implicated as a major factor limiting the active free concentration of many clinically important antibiotics ([37][–][42]).

[12] = system: P. aeruginosa ATCC 10145; experiment: microbe, parasite or virus in culture; conditions: n = 2
Procedure: as §1, §2

[13] = system: A. baumannii ATCC 19606; experiment: microbe, parasite or virus in culture; conditions: n = 2
Procedure: as §1, §2

[14] = system: K. pneumoniae ATCC 13883; experiment: microbe, parasite or virus in culture; conditions: n = 2
Procedure: as §1, §2

[15] = cited from earlier work; for concentration found, % of that expected: PS microtiter plates, [14C]oritavancin
Procedure: as §4

For CN[C@H]1C(=O)N[C@@H]2Cc3ccc(cc3)Oc3cc4cc(c3O[C@@H]3O[C@H](C(=O)O)[C@@H](O)[C@H](O)[C@H]3NC(=O)CCCCCCCCC(C)C)Oc3ccc(cc3Cl)[C@@H](O)[C@@H]3NC(=O)[C@H](NC(=O)[C@@H]4NC(=O)[C@@H](NC2=O)c2cc(cc(O)c2Cl)Oc2cc1ccc2O)c1ccc(O)c(c1)-c1c(O[C@H]2O[C@H](CO)[C@@H](O)[C@H](O)[C@@H]2O)cc(O)cc1[C@@H](C(=O)NCCCN(C)C)NC3=O [Dalbavancin, dalbavancin], the MIC [1] is given as ≤ 0.003 µg/mL, the “MIC (literature)” value [2] is given as 0.06 ([68], [69]) µg/ml and the MIC ([3]; Corning flat TC plate, MHB −T80, no additive) is given as 4 µg/mL (≈ 2.2 µM). For the same molecule, the MIC ([3]; Trek PS, MH + 2% LHB, 2% LS) was 0.125 µg/mL, the MIC ([3]; Trek PS, MH + 2% LHB, no additive) was 0.125 µg/mL and the half-life ([4]; estimated) was 220 to 288 h. For the same molecule, the MIC ([5]; CLSI-consistent value, 0.002% polysorbate 80) was 0.06 µg/mL (≈ 0.033 µM), the MIC ([5]; dilutions in contact with plastic for as little as 30 min before inoculation with surfactant-containing media) was 2 to 8 µg/mL and the MIC [6] was 0.125 µg/mL (≈ 0.0688 µM). It also gave an MIC [7] of 0.125 µg/mL (≈ 0.0688 µM).
For CC[C@H](C)CCCCC(=O)N[C@@H](CCN)C(=O)N[C@H](C(=O)N[C@@H](CCN)C(=O)N[C@H]1CCNC(=O)[C@H]([C@@H](C)O)NC(=O)[C@H](CCN)NC(=O)[C@H](CCN)NC(=O)[C@H](CC(C)C)NC(=O)[C@@H](Cc2ccccc2)NC(=O)[C@H](CCN)NC1=O)[C@@H](C)O [Polymyxin B, polymyxin B] (X1-[Dab]T[Dab][Dab][Dab][dF]L[Dab][Dab]T; lactam 4-C (inferred); N-terminus assumed), the “more potent MICs with surfactant present” value [8] is listed as 4- to 8 fold, the “MIC (literature)” value [9] is listed as 0.25–1 ([73]) µg/ml and the MIC ([10]; Corning NBS, MH + 2% LHB, 2% LS, n = 2) is listed as ≤0.03 µg/mL. The MIC ([10]; Corning NBS, MH + 2% LHB, 50% HS, n = 2) was ≤0.03 µg/mL, the MIC ([10]; Corning NBS, MH + 2% LHB, no additive, n = 2) was ≤0.03 µg/mL and the MIC ([10]; Corning NBS, MH + T80, 2% LS, n = 2) was ≤0.03 µg/mL. The MIC ([10]; Corning NBS, MH + T80, 50% HS, n = 2) was 0.03 to 0.06 µg/mL, the MIC ([10]; Corning NBS, MH, 2% LS, n = 2) was ≤0.03 µg/mL and the MIC ([10]; Corning NBS, MH, 50% HS, n = 2) was ≤0.03 µg/mL. The MIC ([10]; Corning PS plate, MHB +0.002% T80, no further additive, n = 2) was 0.03 to 0.25 µg/mL, the MIC ([10]; Corning PS plate, MHB −T80, no additive, n = 2) was 0.06 µg/mL (≈ 0.0499 µM) and the MIC ([10]; Corning PS, MH + 2% LHB, 2% LS, n = 2) was 0.06 µg/mL. For the same molecule, the MIC ([10]; Corning PS, MH + 2% LHB, 50% HS, n = 2) was 0.03 to 0.06 µg/mL, the MIC ([10]; Corning PS, MH + 2% LHB, no additive, n = 2) was 2 to 8 µg/mL and the MIC ([10]; Corning PS, MH + T80, 2% LS, n = 2) was 0.06 to 0.125 µg/mL. The MIC ([10]; Corning PS, MH + T80, 50% HS, n = 2) was 0.03 to 0.06 µg/mL, the MIC ([10]; Corning PS, MH, 2% LS, n = 2) was 0.06 to 0.125 µg/mL and the MIC ([10]; Corning PS, MH, 50% HS, n = 2) was ≤0.03 µg/mL. It also gave an MIC ([10]; Corning TC plate, MHB +0.002% T80, no further additive, n = 2) of 2 µg/mL (≈ 1.66 µM), an MIC ([10]; Corning TC plate, MHB −T80, no additive, n = 2) of 1 to 2 µg/mL and an MIC ([10]; Corning TC, MH + 2% LHB, 2% LS, n = 2) of 2 to 8 µg/mL. For the same molecule, the MIC ([10]; Corning TC, MH + 2% LHB, 50% HS, n = 2) was 4 µg/mL, the MIC ([10]; Corning TC, MH + 2% LHB, no additive, n = 2) was 0.125 µg/mL and the MIC ([10]; Corning TC, MH + T80, 2% LS, n = 2) was 2 to 4 µg/mL. For the same molecule, the MIC ([10]; Corning TC, MH + T80, 50% HS, n = 2) was 1 to 4 µg/mL, the MIC ([10]; Corning TC, MH, 2% LS, n = 2) was 4 µg/mL (≈ 3.32 µM) and the MIC ([10]; Corning TC, MH, 50% HS, n = 2) was 0.25 to 0.5 µg/mL. The “MIC” value ([10]; NBS plates) was ≤ 0.03 µg/mL, the MIC ([10]; Nunc PS plate, MHB +0.002% T80, n = 2) was 0.03 to 0.06 µg/mL and the MIC ([10]; Nunc PS plate, MHB −T80, n = 2) was 0.125 to 0.25 µg/mL. For the same molecule, the MIC ([10]; Nunc U TC plate, MHB +0.002% T80, n = 2) was 2 to 4 µg/mL, the MIC ([10]; Nunc U TC plate, MHB −T80, n = 2) was 1 to 4 µg/mL and the MIC ([10]; Nunc flat TC plate, MHB +0.002% T80, n = 2) was 2 µg/mL (≈ 1.66 µM). The MIC ([10]; Nunc flat TC plate, MHB −T80, n = 2) was 1 µg/mL (≈ 0.831 µM), the MIC ([10]; Trek PS plate, MHB +0.002% T80, no further additive, n = 2) was 0.03 to 0.06 µg/mL and the MIC ([10]; Trek PS plate, MHB −T80, no additive, n = 2) was 0.06 to 0.125 µg/mL. The MIC ([10]; Trek PS, MH + 2% LHB, 2% LS, n = 2) was ≤0.03 µg/mL, the MIC ([10]; Trek PS, MH + 2% LHB, 50% HS, n = 2) was ≤0.03 µg/mL and the MIC ([10]; Trek PS, MH + 2% LHB, no additive, n = 2) was 0.03 to 0.25 µg/mL. It also gave an MIC ([10]; Trek PS, MH + T80, 2% LS, n = 2) of 0.03 to 0.06 µg/mL, an MIC ([10]; Trek PS, MH + T80, 50% HS, n = 2) of 0.03 to 0.125 µg/mL and an MIC ([10]; Trek PS, MH, 2% LS, n = 2) of 0.5 to 1 µg/mL. For the same molecule, the MIC ([10]; Trek PS, MH, 50% HS, n = 2) was ≤0.03 µg/mL, the protein binding ([11]; literature values, reference given) was 50 to 60% and the MIC ([12]; Corning NBS, MHB +T80) was 0.03 to 0.125 µg/mL. It also gave an MIC ([12]; Corning NBS, MHB -T80) of 0.03 to 0.06 µg/mL, an MIC ([12]; Corning PS, MHB +T80) of 0.5 to 1 µg/mL and an MIC ([12]; Corning PS, MHB -T80) of 0.25 to 1 µg/mL. The MIC ([12]; Corning TC, MHB +T80) was 2 to 4 µg/mL, the MIC ([12]; Corning TC, MHB -T80) was 1 to 4 µg/mL and the MIC ([13]; Corning NBS, MHB +T80) was ≤ 0.03 µg/mL. The MIC ([13]; Corning NBS, MHB -T80) was ≤ 0.03 µg/mL, the MIC ([13]; Corning PS, MHB +T80) was ≤ 0.03 µg/mL and the MIC ([13]; Corning PS, MHB -T80) was 0.06 to 0.125 µg/mL. The MIC ([13]; Corning TC, MHB +T80) was 2 to 4 µg/mL, the MIC ([13]; Corning TC, MHB -T80) was 0.5 to 1 µg/mL and the MIC ([14]; Corning NBS, MHB +T80) was ≤ 0.03 µg/mL. For the same molecule, the MIC ([14]; Corning NBS, MHB -T80) was 0.03 to 0.125 µg/mL, the MIC ([14]; Corning PS, MHB +T80) was 0.03 to 0.06 µg/mL and the MIC ([14]; Corning PS, MHB -T80) was 0.06 to 0.25 µg/mL. The MIC ([14]; Corning TC, MHB +T80) was 1 µg/mL (≈ 0.831 µM) and the MIC ([14]; Corning TC, MHB -T80) was 1 µg/mL (≈ 0.831 µM).
In the case of oritavancin, the half-life ([4]; in vivo) is listed as 240 to 408 h, the “concentration found, % of that expected” value ([15]; 1 µg/ml) is listed as < 10% and the “concentration found, % of that expected” value ([15]; 4 µg/ml) is listed as 35%. The “concentration found, % of that expected” value ([15]; 16 µg/ml) was “approximately 70%”, the “underestimation of MIC values in the absence of added polysorbate 80” value [15] was 16- to 32 fold and the protein binding [11] was 82 to 90%.
